Results: patent US20230009608A1, “GRK2 INHIBITORS AND USES THEREOF” (Cygnal Therapeutics, Inc., priority 2020, published 2023)
Read-outs that look alike come from different tables or passages of the source.

What was measured:
GRK2 = molecular target: T1, GRK2 (Homo sapiens, UniProt P25098); assay: ADPGlo GRK2 Inhibition Assay (Example 8); assay type: biochemical; details: read-out: A: Enzymatic GRK2: IC50 (nM) (Example 8)
T1 construct: purchased SignalChem A14-10G
T1 sequence (P25098 1-689): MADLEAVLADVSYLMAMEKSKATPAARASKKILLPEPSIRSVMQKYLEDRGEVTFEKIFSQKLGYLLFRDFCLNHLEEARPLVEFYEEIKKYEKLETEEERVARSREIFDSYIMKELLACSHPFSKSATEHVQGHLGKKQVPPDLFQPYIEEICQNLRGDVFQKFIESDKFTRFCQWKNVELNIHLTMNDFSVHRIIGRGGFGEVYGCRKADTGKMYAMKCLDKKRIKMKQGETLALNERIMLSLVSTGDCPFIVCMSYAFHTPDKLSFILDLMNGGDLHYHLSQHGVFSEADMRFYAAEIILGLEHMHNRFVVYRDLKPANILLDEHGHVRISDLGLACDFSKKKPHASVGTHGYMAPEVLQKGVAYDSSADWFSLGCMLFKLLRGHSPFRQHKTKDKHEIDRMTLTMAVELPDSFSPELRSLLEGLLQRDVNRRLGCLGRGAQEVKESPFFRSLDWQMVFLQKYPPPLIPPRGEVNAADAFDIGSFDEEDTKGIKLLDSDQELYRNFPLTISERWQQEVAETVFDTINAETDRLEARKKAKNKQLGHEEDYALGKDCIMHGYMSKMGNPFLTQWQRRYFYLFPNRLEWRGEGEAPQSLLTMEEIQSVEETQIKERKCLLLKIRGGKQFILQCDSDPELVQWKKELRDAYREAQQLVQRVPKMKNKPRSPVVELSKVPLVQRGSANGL
How it was run: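 GRK2 (15 nM 2× enzyme solution) was preincubated 15 min with compound, then reacted 180 min at room temperature with 2× mix of 20 μM ATP plus GRKtide in HEPES pH 7.5, MgCl2, Tween-20, DTT. ADP was detected by ADP-Glo luminescence. Percent inhibition was normalised to enzyme and no-enzyme controls, with dose-response curves from threefold dilutions starting at 100 μM.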

[1] = tested on: PAXF1657 control empty vector cell line; assay: 7-day proliferation assay, PAXF1657 control empty vector cell line (Example 9); assay type: cell-based; details: 168 h; Cell Line: PAXF1657 empty vector (EV) cell line; 7-day; read-out: C: 7-day proliferation assay: IC50 GeoMean
How it was run: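 PAXF1657 isogenic lines (GRK2-overexpressing vs empty vector; CRISPR GRK2 knockout vs non-targeting control clones) seeded 500 cells/well in RPMI1640/10% FBS and treated next day with 10-point dilutions, 30 μM-0.0002 μM final, 0.3% DMSO. Media with compound refreshed after 3 days; viability read by CellTiter-Glo luminescence at day 7.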

[2] = Enzyme Assay A, ADPGlo (Example 8)

Work on `O=C(N[C@@H]1COc2cc(F)ccc21)c1cccc(NCc2nnc(-c3ccncc3)[nH]2)c1` yielded an IC50 (GRK2; [2]) of 7.92 nM and an IC50 [1] of 607 nM.
For `Cn1c(CNc2cccc(C(=O)NC3CCS(=O)(=O)c4ccc(F)cc43)c2)nnc1-c1ccncn1` (stereo not shown), the IC50 (GRK2; ADPGlo GRK2 enzyme assay) was 65.4 nM and the IC50 [1] was 8680 nM.
`Cn1c(CNc2cccc(C(=O)NC(CCO)c3ccccc3)c2)nnc1-c1ccncn1` (stereo not shown) gave an IC50 (GRK2; ADPGlo GRK2 enzyme assay) of 26.4 nM and an IC50 [1] of 1090 nM.
Molecule `Cn1c(CNc2cccc(C(=O)NC(CO)c3ccc(F)cc3F)c2)nnc1-c1ccncn1` (stereo not shown) has an IC50 (GRK2; ADPGlo GRK2 enzyme assay) of 83.1 nM and an IC50 [1] of 3070 nM.
For `C[C@H](NC(=O)c1cccc(NCc2nnc(-c3ccncc3)n2CCO)c1)c1ncccc1Cl`, the IC50 (GRK2; ADPGlo GRK2 enzyme assay) was 28.3 nM and the IC50 [1] was 80.9 nM.
For `COc1ccccc1CNC(=O)c1cccc(NCc2nnc(-c3ccncn3)n2C)c1`, the IC50 (GRK2; [2]) was 20 nM and the IC50 [1] was 1900 nM.
For `Cc1noc(C)c1CNC(=O)c1cccc(NCc2nnc(-c3ccncn3)n2C)c1`, the IC50 (GRK2; [2]) was 19 nM and the IC50 [1] was 173 nM.
Molecule `COc1cc(F)ccc1CNC(=O)c1cccc(NCc2nnc(-c3ccncn3)n2C)c1` has an IC50 (GRK2; ADPGlo GRK2 enzyme assay) of 24.7 nM and an IC50 [1] of 28000 nM.
`Cn1c(CNc2cccc(C(=O)NCc3nccc(Cl)c3F)c2)nnc1-c1ccncn1` was tested, and the IC50 (GRK2; [2]) was 220 nM and the IC50 [1] was less than 39 nM.
In the case of `Cc1ccccc1[C@H](C#N)NC(=O)c1cccc(NCc2nnc(-c3ccncn3)n2C)c1`, the IC50 (GRK2; ADPGlo GRK2 enzyme assay) is reported as 4.63 nM and the IC50 [1] is reported as 30.4 nM.
Molecule `Cn1c(CNc2cccc(C(=O)NC3COc4ccc(F)cc43)c2)nnc1-c1ccncn1` (stereo not shown) has an IC50 (GRK2; ADPGlo GRK2 enzyme assay) of 26.6 nM and an IC50 [1] of 1260 nM.
`O=C(NCc1ncccn1)c1cccc(NCc2nnc(-c3ccncc3)[nH]2)c1` showed an IC50 (GRK2; [2]) of 17 nM and an IC50 [1] greater than 10000 nM.
Work on `CN1Cc2ccccc2C(NC(=O)c2cccc(NCc3nnc(-c4ccncn4)n3C)c2)C1=O` (stereo not shown) yielded an IC50 (GRK2; ADPGlo GRK2 enzyme assay) of 63.5 nM and an IC50 [1] greater than 1900 nM.
`COc1cccc([C@@H](C)NC(=O)c2cccc(NCc3nnc(-c4ccncc4)n3C)c2)c1` showed an IC50 (GRK2; ADPGlo GRK2 enzyme assay) of 7.61 nM and an IC50 [1] greater than 30000 nM.
Work on `Cn1c(CNc2cccc(C(=O)NCc3cnn(CCF)c3)c2)nnc1-c1ccncn1` yielded an IC50 (GRK2; ADPGlo GRK2 enzyme assay) of 82.9 nM and an IC50 [1] greater than 5600 nM.
With `Cn1c(CNc2cccc(C(=O)NCc3cccnc3)c2)nnc1-c1ccncn1` the IC50 (GRK2; [2]) was 540 nM and the IC50 [1] was greater than 10000 nM.
Molecule `COCC(NC(=O)c1cccc(NCc2nnc(-c3ccncn3)n2C)c1)c1ccc(F)c(F)c1` (stereo not shown) has an IC50 (GRK2; [2]) of 46 nM and an IC50 [1] of 280 nM.
Work on `COc1cccc([C@H](C)NC(=O)c2cccc(NCc3nnc4n3CCOc3cnccc3-4)c2)c1` yielded an IC50 (GRK2; ADPGlo GRK2 enzyme assay) of 6.52 nM and an IC50 [1] of 10100 nM.
`Cn1c(CNc2cccc(C(=O)NCc3cccnc3Cl)c2)nnc1-c1ccncn1` was tested, and the IC50 (GRK2; ADPGlo GRK2 enzyme assay) was 27.6 nM and the IC50 [1] was 506 nM.
`COc1ncccc1CNC(=O)c1cccc(NCc2nnc(-c3ccncn3)n2C)c1` was tested, and the IC50 (GRK2; [2]) was 70 nM and the IC50 [1] was greater than 10000 nM.
For `COc1cccc([C@@H](C)NC(=O)c2cccc(NCc3nnc(-c4ccncn4)n3CCO)c2)c1`, the IC50 (GRK2; ADPGlo GRK2 enzyme assay) was 4.91 nM and the IC50 [1] was 1230 nM.
Work on `Cc1cccc2ncc(CNC(=O)c3cccc(NCc4nnc(-c5ccncc5)n4CCO)c3)n12` yielded an IC50 (GRK2; ADPGlo GRK2 enzyme assay) of 5.86 nM and an IC50 [1] greater than 30000 nM.
For `Cn1c(CNc2cccc(C(=O)NCc3cc(Cl)ccn3)c2)nnc1-c1ccncn1`, the IC50 (GRK2; [2]) was 45 nM and the IC50 [1] was greater than 30000 nM.
For `COc1cccc(CNC(=O)c2cccc(NCc3nnc(-c4ccncn4)n3C)c2)c1F`, the IC50 (GRK2; [2]) was 10 nM and the IC50 [1] was greater than 10000 nM.
`Cc1nccnc1C(C)NC(=O)c1cccc(NCc2nnc(-c3ccncn3)n2C)c1` (stereo not shown) was tested, and the IC50 (GRK2; ADPGlo GRK2 enzyme assay) was 61 nM and the IC50 [1] was greater than 12500 nM.
With `Cn1c(CNc2cccc(C(=O)NCc3ccc(F)c(F)c3)c2)nnc1-c1ccncn1` the IC50 (GRK2; ADPGlo GRK2 enzyme assay) was 63.7 nM and the IC50 [1] was 9330 nM.
In the case of `Cn1c(CNc2cccc(C(=O)NCc3ccccc3N3CCNCC3)c2)nnc1-c1ccncn1`, the IC50 (GRK2; ADPGlo GRK2 enzyme assay) is reported as 65.8 nM and the IC50 [1] is reported as 7890 nM.
In the case of `Cc1cccc2ncc(CNC(=O)c3cccc(NCc4nnc(-c5ccncc5)[nH]4)c3)n12`, the IC50 (GRK2; ADPGlo GRK2 enzyme assay) is reported as 8.9 nM and the IC50 [1] is reported as greater than 10200 nM.
`[2H]C([2H])(Nc1cccc(C(=O)N[C@H]2CCOc3ccccc32)c1)c1nnc(-c2ccncn2)n1CCO` showed an IC50 (GRK2; ADPGlo GRK2 enzyme assay) of 3.23 nM and an IC50 [1] of 94 nM.
`O=C(NCc1ccccc1-n1cncn1)c1cccc(NCc2nnc(-c3ccncc3)[nH]2)c1` was tested, and the IC50 (GRK2; [2]) was 19 nM and the IC50 [1] was greater than 10000 nM.
With `Cn1c(CNc2cccc(C(=O)NCc3ccncc3Br)c2)nnc1-c1ccncn1` the IC50 (GRK2; ADPGlo GRK2 enzyme assay) was 13.8 nM and the IC50 [1] was 633 nM.
Work on `COc1ccc(C(C)NC(=O)c2cccc(NCc3nnc(-c4ccncn4)n3C)c2)cn1` (stereo not shown) yielded an IC50 (GRK2; ADPGlo GRK2 enzyme assay) of 22.6 nM and an IC50 [1] of 1710 nM.
For `O=C(N[C@H]1COc2cc(F)ccc21)c1cccc(NCc2nnc(-c3ccncc3)n2CCO)c1`, the IC50 (GRK2; [2]) was 23.2 nM and the IC50 [1] was greater than 30000 nM.
With `O=C(N[C@H]1COc2cc(F)ccc21)c1cccc(NCc2nnc(-c3ccncc3)[nH]2)c1` the IC50 (GRK2; [2]) was 27.9 nM and the IC50 [1] was 4070 nM.
Molecule `Cc1cccnc1C(C)(C)NC(=O)c1cccc(NCc2nnc(-c3ccncn3)n2C)c1` has an IC50 (GRK2; [2]) of 630 nM and an IC50 [1] greater than 10000 nM.
`O=C(N[C@@H]1COCc2c(Cl)cccc21)c1cccc(NCc2nnc(-c3ccncc3)n2CCO)c1` gave an IC50 (GRK2; [2]) of 9.91 nM and an IC50 [1] of 24.2 nM.
In the case of `Cn1c(CNc2cccc(C(=O)N[C@@H]3COCc4c(Cl)cccc43)c2)nnc1-c1ccncc1F`, the IC50 (GRK2; [2]) is reported as 60.4 nM and the IC50 [1] is reported as greater than 30000 nM.
Molecule `COc1ncc(Br)cc1CNC(=O)c1cccc(NCc2nnc(-c3ccncn3)n2C)c1` has an IC50 (GRK2; ADPGlo GRK2 enzyme assay) of 21.5 nM and an IC50 [1] of 610 nM.
Work on `CN(C)c1ncccc1CNC(=O)c1cccc(NCc2nnc(-c3ccncn3)n2C)c1` yielded an IC50 (GRK2; ADPGlo GRK2 enzyme assay) of 46.1 nM and an IC50 [1] of 1160 nM.
`Cn1c(CNc2cccc(C(=O)N[C@@H](CCO)c3ccccc3)c2)nnc1-c1ccncn1` gave an IC50 (GRK2; [2]) of 65.9 nM and an IC50 [1] of 13100 nM.
With `Cn1c(CNc2cccc(C(=O)NC3COc4cc(F)ccc43)c2)nnc1-c1ccncn1` (stereo not shown) the IC50 (GRK2; ADPGlo GRK2 enzyme assay) was 35.4 nM and the IC50 [1] was 547 nM.
With `CC(C)C(NC(=O)c1cccc(NCc2nnc(-c3ccncn3)n2C)c1)c1ccccn1` (stereo not shown) the IC50 (GRK2; ADPGlo GRK2 enzyme assay) was 52.8 nM and the IC50 [1] was 1900 nM.
`Cn1c(CNc2cc(C(=O)N[C@H]3COCc4ccccc43)ccn2)nnc1-c1ccncn1` showed an IC50 (GRK2; ADPGlo GRK2 enzyme assay) of 71.1 nM and an IC50 [1] of 11000 nM.
In the case of `Cn1c(CNc2cccc(C(=O)NCc3cc(C#N)ccc3F)c2)nnc1-c1ccncn1`, the IC50 (GRK2; ADPGlo GRK2 enzyme assay) is reported as 17.6 nM and the IC50 [1] is reported as greater than 1280 nM.
`O=C(NCc1cncc(F)c1)c1cccc(NCc2nnc(-c3ccncc3)[nH]2)c1` was tested, and the IC50 (GRK2; [2]) was 17 nM and the IC50 [1] was greater than 10000 nM.
`Cn1ncc(Br)c1CNC(=O)c1cccc(NCc2nnc(-c3ccncn3)n2C)c1` showed an IC50 (GRK2; [2]) of 22 nM and an IC50 [1] greater than 10000 nM.
Molecule `COc1cccc2c1OCC[C@@H]2NC(=O)c1cccc(NCc2nnc(-c3ccncn3)n2C)c1` has an IC50 (GRK2; [2]) of 87.5 nM and an IC50 [1] of 470 nM.
Molecule `COc1ncc(Br)cc1CNC(=O)c1cccc(NCc2nnc(-c3ccncc3)n2CCO)c1` has an IC50 (GRK2; ADPGlo GRK2 enzyme assay) of 7.15 nM and an IC50 [1] of 15100 nM.
Molecule `CN1CC[C@@H](NC(=O)c2cccc(NCc3nnc(-c4ccncn4)n3C)c2)c2ccccc21` has an IC50 (GRK2; ADPGlo GRK2 enzyme assay) of 21 nM and an IC50 [1] greater than 30000 nM.
With `CC(NC(=O)c1cccc(NCc2nnc(-c3ccncn3)n2C)c1)c1ccn(C)n1` (stereo not shown) the IC50 (GRK2; [2]) was 27 nM and the IC50 [1] was 2150 nM.
`Cn1c(CNc2cccc(C(=O)C[C@H]3CCCc4cccnc43)c2)nnc1-c1ccncn1` showed an IC50 (GRK2; [2]) of 20 nM and an IC50 [1] of 224 nM.
`Cc1nnc(CNC(=O)c2cccc(NCc3nnc(-c4ccncc4)[nH]3)c2)n1C1CC1` was tested, and the IC50 (GRK2; [2]) was 19 nM and the IC50 [1] was greater than 10000 nM.
`CN1CCC(NC(=O)c2cccc(NCc3nnc(-c4ccncn4)n3C)c2)c2ccccc21` (stereo not shown) [drawing 321] gave an IC50 (GRK2; [2]) of 37 nM and an IC50 [1] of 9340 nM.
